From patent publication US20240358845A1 (priority 2021, published 2024) come the findings set out here.

Like-named read-outs stand apart in the source and are kept apart here. Some results are limits rather than exact numbers.

One assay relates to CD33. The experiment in a line: CD33 production by flow cytometry in THP1 cells. It counts as cell-based, human. The text has this: Such a result is protective against AD.
Detection of exon 2 skipping by RT-PCR and flow cytometry.

Assay [1] deals with Human CD33 exon 2. It counts as cell-based.
For another assay, the system named is Murine DMD exon 23. The note with it: mouse, in vivo.
A further assay concerns dystrophin. As to conditions: mouse, in vivo.
Assay [2] concerns Human CD33 exon 2. As to conditions: U-87 MG glioblastoma cells; 48 hours; 10% FBS. The source says:
Cells. Differentiated THP-1 cells (human monocyte cells) and glioblastoma cells (human neuronal cells) were used in this study.
Targeting CD33 expression represents a treatment strategy for AD and cancer. Skipping of exon 2 of the gene expressing CD33 produces D2-CD33, a CD33 isoform that lacks a binding domain of sialic acid. In the absence of such a ligand binding domain, CD33 cannot inhibit microglial activation and phagocytosis of amyloid beta by microglial cells. Such a result is protective against AD.

Assay [3] concerns exon 5 of non-human primate CD33. The experiment in a line: CD33 exon 5 skipping (RT-PCR) in monkey PBMC after intravenous infusion. It counts as in vivo. As to conditions: NHP; IV infusion 2 mpk (d0) and 5 mpk (d3). As to the method:
NHP Study design. To explore the tolerability of EEV-PMO on non-human primate (NHP), two CPP-PMO constructs as well as PMO itself are dosed in staggered fashion at 2 mpk and 5 mpk through intravenous infusion on d0 and d3, respectively. […] The CPP used was CPP12, which has a cyclic amino acid sequence of FfΦRrRr. PBMCs (peripheral blood mononuclear cells) were isolated at 1 day (d4) and 7 days […] post 5 mpk injection to detect splicing correction. Blood, serum and urine samples were collected at 1 day and or 7 days post each injection for hematology, clinical chemistry, coagulation, urinalysis, cytokine and histamine analysis.
Detection of exon exclusion by RT-PCR. Although human and non-human primates share high sequence homology of CD33 gene, the 5′-UTR and splicing pattern is different. The sequence coding for the IgV domain of CD33 is located in exon 2 for human and located in exon 5 for non-human primate CD33 gene. Therefore, the skipping of exon 2 in human CD33 (D2-CD33), resulting in ΔIgV-CD33 protein, corresponds to the skipping of exon 5 of non-human primate CD33. Monkey PBMC was collected at specified time points mentioned above. Total RNA was extracted, and RT-PCR was conducted using forward primer 5′-[…]-3′ and reverse primer 5′-[…]-3′ resulting in full length CD33 mRNA (FL-CD33) at 700 bp and Exon-5 skipped CD33 mRNA (D5-CD33) at 320 bp.

In the next assay the test system is creatine kinase. As to conditions: mouse, in vivo.

As to “5′-GTAACTGTATTTGGTACTTCC-3′ + CPP12-PEG12-K(CPP12)-PEG12-TFP (all PMO monomers) [EEV-PMO-CD33-4]”, in the assay on CD33, the “production of CD33 (flow cytometry) in comparison to untreated (NT) cells” value is listed as “reduced production of CD33”. In the assay on Human CD33 exon 2 [1], the “dose dependence of exon 2 skipping” value is “dependent on the dose”; the “efficacy in inducing human CD33 exon 2 skipping (PMO sequence optimization)” value is reported as “superior efficacy”; the “potency of bivalent versus monovalent EEV-PMO-CD33 in inducing CD33 exon 2 skipping” value is reported as “more potent than EEV-PMO-CD33-2”; the “skipping of exon 2 of CD33 (RT-PCR)” value is “resulted in skipping of exon 2 and the production of D2-CD33”.

Take “5′-GGCCAAACCTCGGCTTACCTGAAAT-3′-C3NH-PEG4-BCN+Ac-NLS-Lys(CPP12)-PEG12-K(N3) (all PMO monomers) [ENTR-0165]”: in the assay on Murine DMD exon 23 (iv, 20 mg/kg), the “exon 23 skipping in Quad” value is given as 38.5±2.5%, the “exon 23 skipping in diaphragm” value amounted to 30.2±2.8% and the “exon 23 skipping in heart” value is listed as 30.5±17.0%. For the same substance, in the assay on dystrophin, the “expression of dystrophin protein levels (Western Blot)” value is given as “significantly corrected the expression of dystrophin protein levels”.

Consider “5′-GTAACTGTATTTGGTACTTCC-3′ (Ac-NLS-Lys(CPP12)-PEG12-K(N3)- (all PMO monomers) [EEV-PMO-CD33-5]”, for which the “skipping of exon 2 CD33 (RT-PCR)” value with Human CD33 exon 2 [2] is on record as “dose-dependent skipping of exon 2 CD33”. The “skipping of exon 5 of CD33 gene in monkey PBMC” value in assay [3] was “resulted in skipping of exon 5 of CD33 gene”. Also, in the assay on Human CD33 exon 2 [1], the “dose dependence of exon 2 skipping” value is reported as “dose-dependent skipping of exon 2 CD33”, the “improvement of exon 2 skipping compared to unconjugated PMO-CD33” value is listed as “over 1000 fold” and the “improvement of exon 2 skipping over PMO-CD33 with Endoporter transfection” value is recorded as “over 2 fold”.

As for “5′-GGCCAAACCTCGGCTTACCTGAAAT-3′-click-K-PEG12-Lys(CPP12)-NLS-Ac (all PMO monomers) [ENTR-0201]”, in the assay with Murine DMD exon 23, the “amount of splicing correction at 10 mg/kg versus 5 mg/kg” value is on record as “higher amount of splicing correction than treatment with 5 mg/kg”; the “exon skipping activity across muscle groups” value was “high exon skipping activity across all the muscle groups”; the “mRNA correction and dystrophin protein expression in the heart” value is given as “only observed in 10 mpk ENTR-201 treated MDX mice”; the “performance of CPP12 with Nuclear Localization Sequence versus CPP12 alone” value is on record as “outperformed CPP12 alone significantly”. The “splicing correction of dystrophin in the heart and diaphragm” value with Murine DMD exon 23 is “also resulted in splicing correction of dystrophin in the heart and in the diaphragm”. In addition, the “splicing correction of dystrophin mRNA and dystrophin protein levels” value in the assay on Murine DMD exon 23 (10 mg/kg) is “significant splicing correction of dystrophin mRNA and dystrophin protein levels”. Also, the “splicing correction of dystrophin in the heart and diaphragm” value with Murine DMD exon 23 (20 mg/kg) is “resulted in splicing correction of dystrophin in the heart and in the diaphragm”. In addition, in the assay with Murine DMD exon 23 (iv, 20 mg/kg), the “duration of enhanced exon skipping efficiency” value was “significant enhancements in exon skipping efficiency up to four weeks”, the “exon 23 skipping in Quad” value stood at 73.5±8.4%, the “exon 23 skipping in diaphragm” value came to 79.0±6.8% and the “exon 23 skipping in heart” value was determined as 60.5±17.2%. Also, in the assay on Murine DMD exon 23 (iv, 20 mg/kg), the “splicing correction of dystrophin” value was “resulted in splicing correction of dystrophin”. Also, the “splicing correction and dystrophin protein in comparison to 20 mpk PMO” value with dystrophin was “higher amount of both splicing correction and dystrophin protein in all four muscle tissues”. Moreover, in the assay on dystrophin (iv, 20 mg/kg), the “duration of restored dystrophin protein (Western Blot)” value is recorded as “sustained up to four weeks”; the “dystrophin immunohistochemistry, skeletal muscle fibers” value is given as “all the skeletal muscle fibers immunostained positive for dystrophin protein”; the “intensity of dystrophin expression in heart muscle tissue (immunohistochemistry)” value is on record as “reaching near normal levels”. Also, in the assay on creatine kinase, the “creatine kinase expression in comparison to control” value is given as “decrease in creatine kinase expression in comparison to control” and the “serum creatine kinase level” value was “normalized the serum creatine kinase level”.

As to “5′-GGCCAAACCTCGGCTTACCTGAAAT-3′-C3NH-PEG4-BCN+Lys(N3)-miniPEG-NLS-ss-bA-bA-CPP12 (all PMO monomers) [ENTR-0164]”, in the assay on Murine DMD exon 23 (iv, 20 mg/kg), the “exon 23 skipping in Quad” value was 59.5±2.2%, the “exon 23 skipping in diaphragm” value was 61.0±13.7% and the “exon 23 skipping in heart” value is 29.1±0.8%. The “expression of dystrophin protein levels (Western Blot)” value in the assay on dystrophin is given as “significantly corrected the expression of dystrophin protein levels”.

On to “5′-GGCCAAACCTCGGCTTACCTGAAAT-3′ (all PMO monomers) [ENTR-0013]”, for which the “mRNA correction and dystrophin protein expression in the heart” value in the assay with Murine DMD exon 23 was “not in 20 mg/kg PMO treated MDX mice”. Moreover, the “cells positive for dystrophin in cardiac tissue” value with dystrophin is not above 5%.
